Counter-ions that a name gives are not always drawn. Like-named read-outs stand apart in the source and are kept apart here.
Tests used:
[1] = cited from earlier work
[2] = test system: isolated rat liver mitochondria; details: rat, 30 min, pH 7.4
[3] = cited from earlier work; remark: listed apart in the source
[4] = human therapeutic Cmax at FDA recommended dosages, ref product labeling and drug approval packages at the official FDA website

## Cc1ccc(NC(=O)c2ccc(CN3CCN(C)CC3)cc2)cc1Nc1nccc(-c2cccnc2)n1 [Imatinib]
[1]; in vivo
  DILI potential (based on labeling): 1
  labeling for DILI: W&P: fatal DILI

## C[C@@H]1CCN(C(=O)CC#N)C[C@@H]1N(C)c1ncnc2[nH]ccc12 [Tofacitinib]
[2]
  lowest concentration causing cytochrome c release: 100 fold Cmax
[3]; [4]
  Cmax: 0.09 µM

## CN(C)C/C=C/C(=O)Nc1cc2c(Nc3ccc(F)c(Cl)c3)ncnc2cc1O[C@H]1CCOC1 [Afatinib]
[1]; W&P warnings and precautions, BBW black box warnings, ref FDA product labeling
  labeling for DILI: W&P: ALT↑/monitoring
[1]; ref FDA product labeling
  DILI potential (based on labeling): 1
[3]; [4]
  Cmax: 0.04 µM

## Cc1ccc(NC(=O)c2ccc(CN3CCN(C)CC3)cc2)cc1Nc1nccc(-c2cccnc2)n1 [imatinib mesylate]
[1]; in vivo
  Labeling for DILI: W&P: fatal DILI
[3]; read-out: Cmax at µM, therapeutic maximal blood concentration, ref product labeling
  Cmax: 2 µM
[3]; therapeutic maximal blood concentration, ref product labeling
  Cmax: 986 ng/mL

## Cc1nc(Nc2ncc(C(=O)Nc3c(C)cccc3Cl)s2)cc(N2CCN(CCO)CC2)n1 [Dasatinib]
[1]; ref FDA product labeling
  DILI potential (based on labeling): 0
[3]; [4]
  Cmax: 0.18 µM
